What all share (type): cell-based, human
For data set [1], the system named is U-87 MG. Put plainly: Annexin V-FITC/PI apoptosis analysis, U-87 MG. Conditions: 1.5 μM, 24 h. The procedure: (§1) The level of apoptosis induction of the newly synthesised compounds MM118 and MM119 was determined using double staining with Annexin V-FITC and propidium iodide (AV/PI). This method enables the differentiation of four cell populations based on their state: viable cells, necrotic cells, cells in early apoptosis, and late apoptosis. The compounds were analysed on A172 and U-87 MG human glioblastoma multiforme cell lines using concentrations of 1 μM and 1.5 μM over a 24-h exposure period.
(§2) The impact of apoptosis induction by the tested compounds at concentrations of 1 μM and 1.5 μM, as well as by temozolomide at 1.5 μM, was evaluated through annexin V-FITC and propidium iodide (PI) staining with the Apoptosis Detection Kit II (BD Biosciences, San Diego, CA, USA). The glioblastoma cell lines A172 and U-87 MG were then deprived of medium and washed several times with cold phosphate-buffered saline (PBS) solution. The cell suspension was then prepared in the binding buffer provided in the kit at a concentration of 1 × 10^6 cells/mL. From each sample, 100 μL of the cell suspension was transferred to tubes and subsequently treated with 5 μL of Annexin V-FITC and 5 μL of propidium iodide (PI). The tubes were then incubated for 15 min at room temperature in the dark. Following the incubation period, 400 μL of binding buffer was added to each sample, after which the samples were immediately analysed using a BD FACSCanto II flow cytometer (Becton Dickinson Biosciences, San Jose, CA, USA), with 10,000 events recorded per sample. The results were then analysed using FACSDiva Software Version 6.1.3 (BD Biosciences Systems, San Jose, CA, USA).

Data set [2] can be described thus: Annexin V-FITC/PI apoptosis analysis, U-87 MG. Conditions: human, U-87 MG cells, read-out: Viable cells. The procedure: as §1, §2
The subject of data set [3] is U-87 MG. Put plainly: Mitochondrial membrane potential (JC-1), U-87 MG. Conditions: 1.5 μM, 24 h. The procedure:
The impact of the novel compounds on mitochondrial membrane potential (ΔΨm) was examined. […] In this study, the fluorochrome JC-1 was employed, which, in cells with normally functioning mitochondria, aggregates and accumulates in the hyperpolarized mitochondrial membrane, emitting a red colour. Conversely, when the membrane is damaged, JC-1 breaks down into monomers, emitting green fluorescence. […] For the U-87 MG cell line, these parameters were equal to 54.88 ± 8.36% and 56.13 ± 13.97% of the cell population.
JC-1 (1,1′,3,3′-Tetraethyl-5,5′,6,6′-tetrachloroimidacarbocyanine iodide) (BD Biosciences, San Diego, CA, USA), a lipophilic fluorochrome, was used to evaluate changes in mitochondrial membrane potential. After treatment, cancer cells at a concentration of 1 × 10^6 cells/mL were collected and rinsed twice with PBS. Then, 500 μL JC-1 working solution was added to each sample according to the manufacturer’s protocol. The samples were then incubated for 15 min at 37 °C in a CO2 incubator. After incubation, samples were washed twice with an assay buffer, and 500 μL of each sample was transferred to a BD FACSCanto II flow cytometer (Becton Dickinson Biosciences, San Jose, CA, USA) for analysis, with 10,000 events recorded per sample. Data were analysed using FACSDiva software version 6.1.3 (BD Biosciences Systems, San Jose, CA, USA).

A short description of data set [4]: Annexin V-FITC/PI apoptosis analysis, A172. Particulars: human, A172 cells, read-out: Viable cells; for viability at 24 h, 1 µM: A172, 1.0 μM; for viability at 24 h, 1.5 µM: A172, 1.5 μM. The method, then:
as §1, §2

Data set [5] deals with A172. In words: Annexin V-FITC/PI apoptosis analysis, A172. Conditions: A172, 1.5 μM, 24 h. The procedure: as §1, §2
For data set [6], the system named is caspase 3/7. In words: Caspase 3/7 activation (FAM FLICA), A172. Conditions: A172, 1.5 μM, 24 h. The method, then: The activity of caspase 1, caspase 3/7, caspase 8, and caspase 9 was evaluated through the utilisation of FAM FLICA Caspase Assays (ImmunoChemistry Technologies, Bloomington, MN, USA), in accordance with the established protocols. Following treatment with the compounds, the cells were collected at a concentration of 1 × 10^6 cells/mL, washed twice with cold PBS, and resuspended in 290 μL of PBS. The subsequent step involved the addition of 10 μL of 30X FLICA solution, followed by incubation at 37 °C in the absence of light for one hour. Then, 2 ml of Apoptosis Wash Buffer was added, and the samples were washed twice. A 300 μL aliquot of each sample was transferred to a BD FACSCanto II flow cytometer (Becton Dickinson Biosciences, San Jose, CA, USA), where 10,000 events per sample were recorded. The resulting data was then analysed using FACSDiva software, version 6.1.3 (BD Biosciences Systems, San Jose, CA, USA).

Each structure is given as a SMILES string.

Take `CCC(CO)NS(=O)(=O)c1ccc(-n2nc(C)c3nc4nnnn4nc32)cc1` (stereo in doubt) [MM118, N-(R)-(1-hydroxy-but-2-yl)-4-[7-methyl-5H-pyrazolo[4,3-e]tetrazolo[1,5-b][1]^,[2]^,[4]triazin-5-yl)]benzenesulfonamide]: in data set [1], the Early apoptotic cells amounted to 10.28 ± 4.08%, the Late apoptotic cells was 38.73 ± 4.09% and the Necrotic cells is given as 2.30 ± 1.81%. Also, in data set [2], the viability at 24 h, 1 µM is 76.2% and the viability at 24 h, 1.5 µM is 48.8 ± 3.9%. For the same compound, the “Decreased ΔΨm (cell population)” value in data set [3] amounted to 54.88 ± 8.36%. In data set [4], the viability at 24 h, 1 µM was determined as 88.2% and the viability at 24 h, 1.5 µM came to 65.5 ± 5.06%. Further, in data set [5], the Early apoptotic cells worked out at 3.03 ± 0.44%, the Late apoptotic cells came to 22.10 ± 6.56% and the Necrotic cells turned out to be 9.50 ± 2.10%. The “Active caspase 3/7 (cell population)” value in data set [6] was 42.40 ± 12.59%.
Consider `Cn1nnc2c(C(N)=O)ncn2c1=O` [TMZ, temozolomide, reference compound], for which, in data set [1], the Early apoptotic cells was 3.40 ± 1.63%, the Late apoptotic cells came out at 4.73 ± 0.64%, the Necrotic cells is 0.25 ± 0.24% and the Viable cells was determined as 91.65 ± 1.58%. Further, the viability at 24 h, 1.5 µM in data set [2] stood at 93.4%. The “Decreased ΔΨm (cell population)” value in data set [3] is recorded as 7.05 ± 2.85%. The viability at 24 h, 1.5 µM in data set [4] turned out to be 89.75 ± 0.71%. In data set [5], this compound displayed an Early apoptotic cells of 1.55 ± 0.06%, a Late apoptotic cells of 6.83 ± 0.39% and a Necrotic cells of 1.90 ± 0.38%. In addition, the “Active caspase 3/7 (cell population)” value in data set [6] is reported as “no significant differences”.
In data set [1], `CCC(CO)NS(=O)(=O)c1ccc(-n2nc(C)c3nc4nnnn4nc32)cc1` (stereo in doubt) [MM119, N-(S)-(1-hydroxy-but-2-yl)-4-[7-methyl-5H-pyrazolo[4,3-e]tetrazolo[1,5-b][1]^,[2]^,[4]triazin-5-yl)]benzenesulfonamide] came in with an Early apoptotic cells of 10.18 ± 4.45%, a Late apoptotic cells of 37.40 ± 6.20% and a Necrotic cells of 1.95 ± 1.42%. Also, in data set [2], the viability at 24 h, 1 µM was 85.4% and the viability at 24 h, 1.5 µM stood at 50.5 ± 7.23%. Besides, the “Decreased ΔΨm (cell population)” value in data set [3] came to 56.13 ± 13.97%. Further, in data set [4], the viability at 24 h, 1 µM was 90.7% and the viability at 24 h, 1.5 µM came out at 74.8 ± 1.84%. For the same compound, in data set [5], the Early apoptotic cells is recorded as 1.00 ± 0.28%, the Late apoptotic cells stood at 18.80 ± 1.35% and the Necrotic cells is 2.13 ± 0.62%. Moreover, the “Active caspase 3/7 (cell population)” value in data set [6] is 25.60 ± 4.29%.

Values taken from publication PMC12679848, “Sulphonamide derivatives with a triazine core as novel inducers of apoptosis and pyroptosis in glioblastoma multiforme cells” (Journal of Enzyme Inhibition and Medicinal Chemistry, 2025).
